Experimental data reported in PMC11374673, “Discovery of isoquinoline sulfonamides as allosteric gyrase inhibitors with activity against fluoroquinolone-resistant bacteria” (Nature Chemistry, 2024).
≈ marks a conversion by molar mass, not a printed value. Where “and” joins values, the source holds several entries; their conditions need not be identical. Equal values may be shown once. Entries after “also recorded” stand apart in the source; their conditions may differ.

Tests used:
E. coli W3110 [1] = test: Checkerboard assay with PMBN;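 for checkerboard plate reading, Average values: OD600 read after 20 h incubation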;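 for checkerboard plate reading, replicate wells: OD600 read after 20 h incubation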
HepG2 = test: Cytotoxicity assay (MTT); format: cell-based, human; conditions: for IC50: MTT, 24 h
HEK293T = test: Cytotoxicity assay (MTT); format: cell-based, human; conditions: for MTT data (raw readout): HEK293T; for IC50: 24 h, MTT
In short: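 HEK293T cells, maintained at 37 °C and 7% CO2 in Dulbecco’s modified Eagle medium with GlutaMax, antibiotics and serum, were plated in clear 96-well plates in 100 µl medium containing 1% fetal bovine serum and left 24 h to attach. After 24 h compound exposure, MTT (0.40 mg ml^−1) was added for 2 h. Formazan was dissolved in 100 µl DMSO and absorbance measured at 570 nm. Background-corrected IC50 values came from variable-slope non-linear fits.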

E. coli W3110 [2] = test: MIC by broth microdilution; format: cell-based, Escherichia coli; conditions: Escherichia coli, W3110, WT, broth microdilution; read-out: MIC E. coli W3110
In short: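 Exponential-phase cultures (OD600 0.5, 37 °C aerobic), diluted 100-fold in CAMHB, were added to twofold compound dilution series. Keio strains grown with 50 µg ml^−1 kanamycin. Plates incubated overnight at 37 °C, shaking at 600 r.p.m.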

O=S(=O)(NC[C@@H]1CC[C@H](c2ccc(-c3cccnc3)cc2)N1)c1cccc2cnccc12 [LEI-800]
checkerboard plate reading, Average values (E. coli W3110 [1]; LEI-800 0.78125 µM + PMBN 16 µM (by position)): 0.1463 | checkerboard plate reading, Average values (E. coli W3110 [1]; LEI-800 0.78125 µM + PMBN 32 µM (by position)): 0.1515 | checkerboard plate reading, Average values (E. coli W3110 [1]; LEI-800 1.5625 µM + PMBN 0 µM (by position)): 0.3277 | checkerboard plate reading, Average values (E. coli W3110 [1]; LEI-800 1.5625 µM + PMBN 0.5 µM (by position)): 0.2628 | checkerboard plate reading, replicate wells (E. coli W3110 [1]; LEI-800 1.5625 µM + PMBN 1 µM): 0.1569 | checkerboard plate reading, Average values (E. coli W3110 [1]; LEI-800 1.5625 µM + PMBN 1 µM (by position)): 0.2051 | checkerboard plate reading, replicate wells (E. coli W3110 [1]; LEI-800 1.5625 µM + PMBN 2 µM): 0.1524 and 0.1433 and 0.1454 | checkerboard plate reading, Average values (E. coli W3110 [1]; LEI-800 1.5625 µM + PMBN 2 µM (by position)): 0.1478 | checkerboard plate reading, replicate wells (E. coli W3110 [1]; LEI-800 1.5625 µM + PMBN 4 µM): 0.1452 and 0.1502 and 0.1384 | checkerboard plate reading, Average values (E. coli W3110 [1]; LEI-800 1.5625 µM + PMBN 4 µM (by position)): 0.1494 | checkerboard plate reading, Average values (E. coli W3110 [1]; LEI-800 1.5625 µM + PMBN 8 µM (by position)): 0.1497 | checkerboard plate reading, Average values (E. coli W3110 [1]; LEI-800 1.5625 µM + PMBN 16 µM (by position)): 0.1521 | checkerboard plate reading, Average values (E. coli W3110 [1]; LEI-800 1.5625 µM + PMBN 32 µM (by position)): 0.1528 | checkerboard plate reading, replicate wells (E. coli W3110 [1]; LEI-800 3.125 µM + PMBN 0 µM): 0.2026 and 0.2019 and 0.1984 | checkerboard plate reading, Average values (E. coli W3110 [1]; LEI-800 3.125 µM + PMBN 0 µM (by position)): 0.201 | checkerboard plate reading, replicate wells (E. coli W3110 [1]; LEI-800 3.125 µM + PMBN 0.5 µM): 0.1489 and 0.151 and 0.1511 | checkerboard plate reading, replicate wells (E. coli W3110 [1]; LEI-800 3.125 µM + PMBN 1 µM): 0.1556 and 0.1491 and 0.1492 | checkerboard plate reading, Average values (E. coli W3110 [1]; LEI-800 3.125 µM + PMBN 1 µM (by position)): 0.1661 | checkerboard plate reading, replicate wells (E. coli W3110 [1]; LEI-800 3.125 µM + PMBN 2 µM): 0.1469 and 0.1488 and 0.1457 | checkerboard plate reading, Average values (E. coli W3110 [1]; LEI-800 3.125 µM + PMBN 2 µM (by position)): 0.1503 | checkerboard plate reading, replicate wells (E. coli W3110 [1]; LEI-800 3.125 µM + PMBN 4 µM): 0.1605 and 0.1486 and 0.1531 | checkerboard plate reading, Average values (E. coli W3110 [1]; LEI-800 3.125 µM + PMBN 4 µM (by position)): 0.1504 | checkerboard plate reading, replicate wells (E. coli W3110 [1]; LEI-800 3.125 µM + PMBN 8 µM): 0.1502 and 0.1529 and 0.1524 | checkerboard plate reading, Average values (E. coli W3110 [1]; LEI-800 3.125 µM + PMBN 8 µM (by position)): 0.1498 | checkerboard plate reading, replicate wells (E. coli W3110 [1]; LEI-800 3.125 µM + PMBN 16 µM): 0.1512 and 0.151 and 0.1573 | checkerboard plate reading, Average values (E. coli W3110 [1]; LEI-800 3.125 µM + PMBN 16 µM (by position)): 0.1513 | checkerboard plate reading, replicate wells (E. coli W3110 [1]; LEI-800 3.125 µM + PMBN 32 µM): 0.1461 and 0.1492 and 0.1481 | checkerboard plate reading, Average values (E. coli W3110 [1]; LEI-800 3.125 µM + PMBN 32 µM (by position)): 0.1506 | MIC E. coli + 8 μM PMBN (E. coli W3110 [1]; LPS disruption (pharmacological)): 0.4 µM | synergy with PMBN (E. coli W3110 [1]; checkerboard): potentiates; also recorded: Clear synergy | MSC (E. coli W3110 [1]; checkerboard with PMBN, E. coli W3110): 0.39 µM | MTT data (raw readout) (HepG2; HepG2, 0.023 uM, experiment n = 1, technical triplicates, listed as LEI-800 (102)): 0.404 and 0.388 and 0.378 | MTT data (raw readout) (HepG2; HepG2, 0.023 uM, experiment n = 2, technical triplicates, listed as LEI-800 (102)): 0.268 and 0.286 and 0.353 | MTT data (raw readout) (HepG2; HepG2, 0.068 uM, experiment n = 1, technical triplicates, listed as LEI-800 (102)): 0.391 and 0.379 and 0.435 | MTT data (raw readout) (HepG2; HepG2, 0.068 uM, experiment n = 2, technical triplicates, listed as LEI-800 (102)): 0.250 and 0.293 and 0.379 | MTT data (raw readout) (HepG2; HepG2, 0.21 uM, experiment n = 1, technical triplicates, listed as LEI-800 (102)): 0.377 and 0.445 and 0.431 | MTT data (raw readout) (HepG2; HepG2, 0.21 uM, experiment n = 2, technical triplicates, listed as LEI-800 (102)): 0.243 and 0.281 and 0.327 | MTT data (raw readout) (HepG2; HepG2, 0.62 uM, experiment n = 1, technical triplicates, listed as LEI-800 (102)): 0.371 and 0.373 and 0.384 | MTT data (raw readout) (HepG2; HepG2, 0.62 uM, experiment n = 2, technical triplicates, listed as LEI-800 (102)): 0.248 and 0.278 and 0.343 | MTT data (raw readout) (HepG2; HepG2, 1.85 uM, experiment n = 1, technical triplicates, listed as LEI-800 (102)): 0.402 and 0.403 and 0.424 | MTT data (raw readout) (HepG2; HepG2, 1.85 uM, experiment n = 2, technical triplicates, listed as LEI-800 (102)): 0.281 and 0.293 and 0.337 | IC50 (HepG2; Homo sapiens, HepG2, 24 h): > 100 µM | IC50 (HepG2; listed as LEI-800 (102)): > 50 µM | MTT data (raw readout) (HEK293T; 0.023 uM, experiment n = 1, technical triplicates, listed as LEI-800 (102)): 1.514 and 1.430 and 1.503 | MTT data (raw readout) (HEK293T; 0.023 uM, experiment n = 2, technical triplicates, listed as LEI-800 (102)): 0.881 and 0.910 and 1.010 | MTT data (raw readout) (HEK293T; 0.068 uM, experiment n = 1, technical triplicates, listed as LEI-800 (102)): 1.213 and 1.245 and 1.353 | MTT data (raw readout) (HEK293T; 0.068 uM, experiment n = 2, technical triplicates, listed as LEI-800 (102)): 0.864 and 0.913 and 1.008 | MTT data (raw readout) (HEK293T; 0.21 uM, experiment n = 1, technical triplicates, listed as LEI-800 (102)): 1.179 and 1.313 and 1.432 | MTT data (raw readout) (HEK293T; 0.21 uM, experiment n = 2, technical triplicates, listed as LEI-800 (102)): 0.911 and 0.971 and 1.136 | MTT data (raw readout) (HEK293T; 0.62 uM, experiment n = 1, technical triplicates, listed as LEI-800 (102)): 1.153 and 1.305 and 1.537 | MTT data (raw readout) (HEK293T; 0.62 uM, experiment n = 2, technical triplicates, listed as LEI-800 (102)): 0.849 and 0.899 and 1.012 | MTT data (raw readout) (HEK293T; 1.85 uM, experiment n = 1, technical triplicates, listed as LEI-800 (102)): 1.133 and 1.157 and 1.398 | MTT data (raw readout) (HEK293T; 1.85 uM, experiment n = 2, technical triplicates, listed as LEI-800 (102)): 0.878 and 0.935 and 1.030 | IC50 (HEK293T; Homo sapiens, HEK-293T): 65 µM | IC50 (HEK293T; listed as LEI-800 (102)): > 50 µM | MIC (E. coli W3110 [2]): 3.1 µM (≈ 1.38 µg/mL)
